These results are taken from US20090017038A1, “Sigma-2 Receptor, Method of Screening of Specific Ligands and Use of the Same in Diagnostic or Therapeutic Methods” (priority 2006, published 2009).

Series [1] addresses T1, sigma-2 receptor (Homo sapiens, UniProt Q5BJF2). As to the kind of experiment: sigma-2 receptor activity.
Series [2] has as its target T1, sigma-2 receptor. As to the kind of experiment: sigma-2 receptor affinity. It is filed as binding.
Series [3] concerns sigma-2 receptor (affinity chromatography-eluted proteins from SK-N-SH membranes). As to the kind of experiment: saturation binding analysis with [3H]-DTG on affinity column-eluted proteins. More on the design: species or system human. The conditions noted are these: [3H]-DTG saturation, FIG. 2A.
Procedure: The samples, containing 400 μg of protein, radioligand, 10 μM of unlabeled DTG to determine nonspecific binding, and 1 μM of (+)-pentazocine to mask the sigma-1 receptors, were brought to equilibrium Into a final volume of 500 μL 50 mM Tris-HCl at pH 8.0 for 120 min at 25° C. At equilibrium, 5 mL buffer (50 mM Tris-HCl, pH 7.4) were added. Samples were filtered on GF/C membranes, acclimatized in 0.5% PEI for 30 min prior to use. Filters were washed twice with the buffer (5 mL). Radioactivity count was performed on a LS-6500 Beckman Scintillation Counter.
Series [4] has as its target T1, sigma-2 receptor. The settings on record: literature (Perrone 2000; Berardi 1996); cited from earlier work.
Series [5] concerns the target T1, sigma-2 receptor. The settings on record: literature (Perrone 2000; Berardi 1996); cited from earlier work. The source holds these as a separate data set.
For series [6], the target named is mixture of the affinity column-eluted histone proteins (sigma-2 receptor). As to the kind of experiment: competition binding assay with [3H]-DTG on mixture of affinity column-eluted histone proteins. Details: species or system human. The settings on record: 20 mcg histone proteins, radioligand [3H]-DTG. As for the experimental part:
The formation of a complex was highlighted through an assay in which the histone proteins were suspended in 50 mM Tris pH 8.0. […] At equilibrium, determined by the above-mentioned kinetic studies, the histone/radioligand complex was separated after 120 min by filtration on glass fiber (GF/C) membranes, and quantification of the same was performed by radioactivity count.
The sample was incubated for 120 min at 25° C., then the histone/radioligand complex was rapidly filtered on ø 25 mm GF/C membranes. The filter was washed twice with 3 mL buffer. Scintillation liquid was added and a radioactivity reading was performed. The displacement rate was calculated as difference (%) with respect to the specific binding measures by using 10 μM of DTG.

Series [7] relates to neuroblastoma or glioma tumour cells. As to the kind of experiment: antiproliferative assay (MTT). It is filed as cell-based. The procedure:
(§1) The antiproliferative assay for compounds was performed by using the MTT assay (Mossman et al. 1983, J. Immunol. Methods 65, pp 55-63). The cytotoxicity assay was performed by measuring the LDH level as reported by Vilner and Bowen 2000, J. Pharmacol. Exp. Ther. 292, pp 408-413. The detailed experimental part is reported in Colabufo et al. 2004, Naunyn Schmiedeberg's Arch. Pharmacol. 370, pp. 106-113.

Series [8] has the same test system. As to the kind of experiment: cytotoxicity assay (LDH level). It counts as cell-based. As for the experimental part:
as §1

T1 sequence (Q5BJF2 whole entry, species assumed): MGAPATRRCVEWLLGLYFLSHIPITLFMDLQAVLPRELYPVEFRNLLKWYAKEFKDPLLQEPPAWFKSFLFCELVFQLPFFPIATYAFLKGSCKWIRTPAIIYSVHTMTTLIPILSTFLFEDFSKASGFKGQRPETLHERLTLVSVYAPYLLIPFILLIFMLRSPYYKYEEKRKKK

Turning to `COc1ccc(N)c2c1CCCC2CCCN1CCN(C2CCCCC2)CC1` (centres unmarked) [compound 2, 1-cyclohexyl-4-[3-(8-amino-5-methoxy-1,2,3,4-tetrahydronaphtalen-1-yl)propyl]piperazine], the “sigma-2 activity of amino-substituted ligand relative to PB28” value at sigma-2 receptor [1] was “unmodified”. For the same compound, the “affinity of amino-substituted ligand relative to PB28” value on sigma-2 receptor [2] is recorded as “unmodified”.
On to `Cc1ccccc1N=C(N)Nc1ccccc1C` [[^3H]-DTG], for which the Bmax in series [3] is reported as 588±50 fmol/mg of protein.
Take `COc1cccc2c1CCCC2CCCN1CCN(C2CCCCC2)CC1` (centres unmarked) [PB28]: the “affinity for sigma-2 receptor” value at sigma-2 receptor [4] is reported as “high affinity”. For the same compound, the “agonist activity at sigma-2 receptor” value at sigma-2 receptor [5] is given as “potent agonist activity”.
Turning to `COc1ccccc1[C@H]1CC[C@H](N2CCN(C3CCCCC3)CC2)CC1` [trans-1-cyclohexyl-4-[4-(2-methoxy-phenyl)cyclohexyl]piperazine], the Ki (commonly a dissociation constant, usually derived from enzyme kinetics or from competition with a known ligand) in series [6] came out at 0.068 nM. Besides, the antiproliferative activity entry in series [7] is given as “homogeneous to results reported in literature for the best ligand known to date: the compound PB28”. Further, the cytotoxic activity result in series [8] is “homogeneous to results reported in literature for the best ligand known to date: the compound PB28”.
